Laboratory results published in patent publication US11407736B2 (priority 2019, dated 2022).
Read-outs that look alike come from different tables or passages of the source.

Legend:
[1] = system: L929 cells; experiment: L929 cell necroptosis assay (TNFa + zVAD, CellTiter-Glo); type: cell-based, murine; details: Mus musculus
Procedure: (§1) In this example, U937 and L929 cells were exposed to compounds of the present disclosure and a cell necroptosis assay was conducted to evaluate the compounds' activity against human RIP1 and murine RIP1.
U937 and L929 cells were obtained from the American Type Culture Collection (Manassa, Va., USA). Both cells were maintained in logarithmic growth phase in complete RPMI 1640 media (Sigma, ST Louis, Mo., USA) supplemented with 10% fetal bovine serum (Sigma, ST Louis, Mo., USA) at 37° C. with 5% CO2. For necroptosis assay, L929 cells were plated for 18 h in 100 μL/well medium at 10K cells/well in Costar 96-well black clear-bottom plates (Fisher Scientific, Hampton, N.H., USA); U937 cells were plated on the day of the assay in 50 4/well medium containing 60 uM zVAD-fink (Lonza, Basel, Switzerland) at 50K cells/well. Medium from L929 cells were removed from the 96-well plates and replaced with 50 μL/well new medium containing 40 uM zVAD-fink. Each compound of the present disclosure evaluated in this example was serially diluted in DMSO from 2.5 mM in 4-fold dilutions, and then diluted 1:125 in complete medium. 50 μL/well 2× of the compound was then added to the cells in the plates. […] The relative amount of necroptosis cells was determined by luminescent using a Wallac Victor2 Luminometer (PerkinElmer, Waltham, Mass., USA) and a CellTiter-Glo® Luminescent Cell Viability Reagent Assay (Promega, Madison, Wis., USA) added per manufacturer instructions after 18 hours of TNFa stimulation at 37° C. with 5% CO2.

[2] = system: U937 cells; experiment: U937 cell necroptosis assay (TNFa + zVAD, CellTiter-Glo); type: cell-based, human; details: Homo sapiens
Procedure: as §1
U937 and L929 cells were obtained from the American Type Culture Collection (Manassa, Va., USA). Both cells were maintained in logarithmic growth phase in complete RPMI 1640 media (Sigma, ST Louis, Mo., USA) supplemented with 10% fetal bovine serum (Sigma, ST Louis, Mo., USA) at 37° C. with 5% CO2. For necroptosis assay, L929 cells were plated for 18 h in 100 μL/well medium at 10K cells/well in Costar 96-well black clear-bottom plates (Fisher Scientific, Hampton, N.H., USA); U937 cells were plated on the day of the assay in 50 4/well medium containing 60 uM zVAD-fink (Lonza, Basel, Switzerland) at 50K cells/well. Medium from L929 cells were removed from the 96-well plates and replaced with 50 μL/well new medium containing 40 uM zVAD-fink. Each compound of the present disclosure evaluated in this example was serially diluted in DMSO from 2.5 mM in 4-fold dilutions, and then diluted 1:125 in complete medium. 50 μL/well 2× of the compound was then added to the cells in the plates. The cells were pre-incubated with the compound for 1 hour at 37° C. with 5% CO2 and before addition of 10 μL/well 1 1×TNFa (Peprotech, Rocky Hill, N.J., USA) to give a final concentration of 2 ng/mL for TNFa. The relative amount of necroptosis cells was determined by luminescent using a Wallac Victor2 Luminometer (PerkinElmer, Waltham, Mass., USA) and a CellTiter-Glo® Luminescent Cell Viability Reagent Assay (Promega, Madison, Wis., USA) added per manufacturer instructions after 18 hours of TNFa stimulation at 37° C. with 5% CO2. This example establishes that embodiments of the compounds described herein have unexpectedly potent activity against human RIP1 and murine RIP1, which allows their assessment in in vivo mouse models of disease.

[3] = U-937, U937 cells, TNFa + zVAD, read-out: U937 Zvad TNF CTG Recovery, U937, TNFa + zVAD (IC50)
[4] = L929, L929 cells, TNFa + zVAD, read-out: L929-CTG-recovery, L929, TNFa + zVAD (IC50)

## CN1C(=O)[C@@H](NC(=O)c2n[nH]c(Cc3ccccc3)n2)COc2ccc(/C=C(\Cl)C(C)(C)O)cc21 [Compound I-94, (S,Z)-5-benzyl-N-(7-(2-chloro-3-hydroxy-3-methylbut-1-en-1-yl)-5-methyl-4-oxo-2,3,4,5-tetrahydrobenzo[b][1,4]oxazepin-3-yl)-1H-1,2,4-triazole-3-carboxamide]
[1]; L929 cells, TNFa + zVAD, read-out: L929-CTG-recovery, L929, TNFa + zVAD (IC50)
  IC50: 4.6 nM
[2]; [3]
  IC50: 22 nM

## [2H]C([2H])([2H])C(O)(C#Cc1ccc2c(c1)N(C)C(=O)[C@@H](NC(=O)c1n[nH]c(Cc3ccccc3)n1)CO2)C([2H])([2H])[2H] [Compound I-69, (S)-5-benzyl-N-(7-(3-hydroxy-3-(methyl-d3)but-1-yn-1-yl-4,4,4-d3)-5-methyl-4-oxo-2,3,4,5-tetrahydrobenzo[b][1,4]oxazepin-3-yl)-1H-1,2,4-triazole-3-carboxamide]
[1]; [4]
  IC50: 0.9 nM
[2]; [3]
  IC50: 2.2 nM

## CN1C(=O)[C@@H](NC(=O)c2cc(Oc3ccccc3)ccn2)COc2ccc(C#CC3(O)CN(CC4CC4)C3)cc21 [Compound I-196, (S)—N-(7-((1-(cyclopropylmethyl)-3-hydroxyazetidin-3-yl)ethynyl)-5-methyl-4-oxo-2,3,4,5-tetrahydrobenzo[b][1,4]oxazepin-3-yl)-4-phenoxypicolinamide]
[1]; [4]
  IC50: 201 nM
[2]; [3]
  IC50: 3.3 nM

## CN1C(=O)[C@@H](NC(=O)c2cc(Oc3ccc(F)cc3)ccn2)COc2ccc(C#CC(C)(C)COP(=O)(O)O)cc21 [Compound I-174, (S)-4-(3-(4-(4-fluorophenoxy)picolinamido)-5-methyl-4-oxo-2,3,4,5-tetrahydrobenzo[b][1,4]oxazepin-7-yl)-2,2-dimethylbut-3-yn-1-yl dihydrogen phosphate]
[1]; [4]
  IC50: 16500 nM
[2]; [3]
  IC50: 438 nM

## CN1C(=O)[C@@H](NC(=O)c2cc(Oc3ccccc3)ccn2)COc2ccc(C#CC(C)(C)N3CCS(=O)(=O)CC3)cc21 [Compound I-211, (S)—N-(7-(3-(1,1-Dioxidothiomorpholino)-3-methylbut-1-yn-1-yl)-5-methyl-4-oxo-2,3,4,5-tetrahydrobenzo[b][1,4]oxazepin-3-yl)-4-phenoxypicolinamide]
[1]; [4]
  IC50: 44.8 nM
[2]; [3]
  IC50: 1.1 nM

## CN1C(=O)[C@@H](NC(=O)c2cc(Oc3ccccc3)ccn2)COc2ccc(C#CC3(F)CNC3)cc21 [Compound I-143]
[1]; L929, read-out: L929-CTG-recovery, L929, TNFa + zVAD (IC50), L929 cells, TNFa + zVAD
  IC50: 197 nM
[2]; U-937, read-out: U937 Zvad TNF CTG Recovery, U937, TNFa + zVAD (IC50), U937 cells, TNFa + zVAD
  IC50: 3.5 nM

## [2H]C([2H])([2H])C(O)(C#Cc1ccc2c(c1)N(C)C(=O)[C@@H](NC(=O)c1cc(Oc3ccccc3)ccn1)CO2)C([2H])([2H])[2H] [Compound I-68, (S)—N-(7-(3-hydroxy-3-(methyl-d3)but-1-yn-1-yl-4,4,4-d3)-5-methyl-4-oxo-2,3,4,5-tetrahydrobenzo[b][1,4]oxazepin-3-yl)-4-phenoxypicolinamide]
[1]; [4]
  IC50: 0.3 nM
[2]; [3]
  IC50: 0.7 nM

## CN1C(=O)[C@@H](NC(=O)c2cc(Oc3ccccc3)ccn2)COc2ccc(C#CC3(O)COC3)cc21 [Compound I-110, (S)—N-(7-((3-hydroxyoxetan-3-yl)ethynyl)-5-methyl-4-oxo-2,3,4,5-tetrahydrobenzo[b][1,4]oxazepin-3-yl)-4-phenoxypicolinamide]
[1]; [4]
  IC50: 18.8 nM
[2]; [3]
  IC50: 0.4 nM

## CC(C)[C@H](N)C(=O)OCC(C)(C)C#Cc1ccc2c(c1)N(C)C(=O)[C@@H](NC(=O)c1cc(Oc3ccc(F)cc3)ccn1)CO2 [Compound I-172, 4-((S)-3-(4-(4-fluorophenoxy)picolinamido)-5-methyl-4-oxo-2,3,4,5-tetrahydrobenzo[b][1,4]oxazepin-7-yl)-2,2-dimethylbut-3-yn-1-yl L-valinate]
[1]; [4]
  IC50: 850 nM
[2]; [3]
  IC50: 22.1 nM

## CC(C)N1CC(F)(C#Cc2ccc3c(c2)N(C)C(=O)[C@@H](NC(=O)c2cc(Oc4ccccc4)ccn2)CO3)C1 [Compound I-166, (S)—N-(7-((3-fluoro-1-isopropylazetidin-3-yl)ethynyl)-5-methyl-4-oxo-2,3,4,5-tetrahydrobenzo[b][1,4]oxazepin-3-yl)-4-phenoxypicolinamide]
[1]; [4]
  IC50: 27.7 nM
[2]; [3]
  IC50: 1 nM

## CN1C(=O)[C@@H](NC(=O)c2cc(Oc3ccccc3)ccn2)COc2ccc(C#CC(C)(C)COP(=O)(O)O)cc21 [Compound I-173, (S)-2,2-dimethyl-4-(5-methyl-4-oxo-3-(4-phenoxypicolinamido)-2,3,4,5-tetrahydrobenzo[b][1,4]oxazepin-7-yl)but-3-yn-1-yl dihydrogen phosphate]
[1]; [4]
  IC50: 2860 nM
[2]; [3]
  IC50: 48.5 nM

## CCNC(=O)N1CC(O)(C#Cc2ccc3c(c2)N(C)C(=O)[C@@H](NC(=O)c2cc(Oc4ccccc4)ccn2)CO3)C1 [Compound I-198, (S)—N-(7-((1-(ethylcarbamoyl)-3-hydroxyazetidin-3-yl)ethynyl)-5-methyl-4-oxo-2,3,4,5-tetrahydrobenzo[b][1,4]oxazepin-3-yl)-4-phenoxypicolinamide]
[1]; [4]
  IC50: 39.1 nM
[2]; [3]
  IC50: 0.9 nM

## CC(=O)N1CC(O)(C#Cc2ccc3c(c2)N(C)C(=O)[C@@H](NC(=O)c2cc(Oc4ccccc4)ccn2)CO3)C1 [Compound I-197, (S)—N-(7-((1-acetyl-3-hydroxyazetidin-3-yl)ethynyl)-5-methyl-4-oxo-2,3,4,5-tetrahydrobenzo[b][1,4]oxazepin-3-yl)-4-phenoxypicolinamide]
[1]; [4]
  IC50: 70.6 nM
[2]; [3]
  IC50: 0.7 nM

## [2H]c1c([2H])c([2H])c(Oc2ccnc(C(=O)N[C@H]3COc4ccc(C#CC5(O)COC5)cc4N(C)C3=O)c2)c([2H])c1[2H] [Compound I-190, (S)—N-(7-((3-hydroxyoxetan-3-yl)ethynyl)-5-methyl-4-oxo-2,3,4,5-tetrahydrobenzo[b][1,4]oxazepin-3-yl)-4-(phenoxy-d5)picolinamide]
[2]; [3]
  IC50: 0.6 nM

## CN1C(=O)[C@@H](NC(=O)n2cc(Cc3ccc(F)cc3F)cn2)COc2ccc(C#CC(C)(C)CO)cc21 [Compound I-239, (S)-4-(2,4-Difluorobenzyl)-N-(7-(4-hydroxy-3,3-dimethylbut-1-yn-1-yl)-5-methyl-4-oxo-2,3,4,5-tetrahydrobenzo[b][1,4]oxazepin-3-yl)-1H-pyrazole-1-carboxamide]
[1]; [4]
  IC50: 218 nM
[2]; [3]
  IC50: 8.8 nM

## CN1C(=O)[C@H](NC(=O)c2cc(Oc3ccccc3)ccn2)COc2ccc(C#CC(C)(C)O)cc21 [Compound I-113, (R)—N-(7-(3-hydroxy-3-methylbut-1-yn-1-yl)-5-methyl-4-oxo-2,3,4,5-tetrahydrobenzo[b][1,4]oxazepin-3-yl)-4-phenoxypicolinamide]
[1]; [4]
  IC50: 2340 nM
[2]; [3]
  IC50: 31.5 nM

## CN1C(=O)[C@@H](NC(=O)c2cc(Oc3ccc(F)cc3)ccn2)COc2ccc(C#CC(C)(C)COC(=O)CCC(=O)O)cc21 [Compound I-170, (S)-4-((4-(3-(4-(4-fluorophenoxy)picolinamido)-5-methyl-4-oxo-2,3,4,5-tetrahydrobenzo[b][1,4]oxazepin-7-yl)-2,2-dimethylbut-3-yn-1-yl)oxy)-4-oxobutanoic acid]
[1]; [4]
  IC50: 1840 nM
[2]; [3]
  IC50: 14.8 nM

## C[C@H](N)C(=O)OCC(C)(C)C#Cc1ccc2c(c1)N(C)C(=O)[C@@H](NC(=O)c1cc(Oc3ccc(F)cc3)ccn1)CO2 [Compound I-171, 4-((S)-3-(4-(4-fluorophenoxy)picolinamido)-5-methyl-4-oxo-2,3,4,5-tetrahydrobenzo[b][1,4]oxazepin-7-yl)-2,2-dimethylbut-3-yn-1-yl L-alaninate]
[1]; [4]
  IC50: 394 nM
[2]; [3]
  IC50: 6.4 nM
